Source: paper PMC9866706 (Toxins, 2022)
“Also recorded” adds a separate entry of the source. Bridges are numbered along the chain shown (N, C = ends). Where no end group is shown, it is not given here.

Key:
rα9α10 nAChR = molecular target: T1, rα9α10 nAChR (Rattus norvegicus, UniProt P43144+Q9JLB5); test: ACh-evoked currents in Xenopus oocytes (TEVC), rα9α10; assay type: cell-based
T1 construct: expressed in transfected cells; host or cells: Xenopus laevis oocytes injected with cRNA

rα4β2 nAChR = molecular target: T2, rα4β2 nAChR (Rattus norvegicus, UniProt P09483+P12390); test: ACh-evoked currents in Xenopus oocytes (TEVC), rα4β2; assay type: cell-based
T2 construct: expressed in transfected cells; host or cells: Xenopus laevis oocytes injected with cRNA

hα7 nAChR = molecular target: T3, hα7 nAChR (Homo sapiens, UniProt P36544); test: ACh-evoked currents in Xenopus oocytes (TEVC), hα7; assay type: cell-based
T3 construct: expressed in transfected cells; host or cells: Xenopus laevis oocytes injected with cRNA

rα4β4 nAChR = molecular target: T4, rα4β4 nAChR (Rattus norvegicus, UniProt P09483+P12392); test: ACh-evoked currents in Xenopus oocytes (TEVC), rα4β4; assay type: cell-based
T4 construct: expressed in transfected cells; host or cells: Xenopus laevis oocytes injected with cRNA

rα2β4 nAChR = molecular target: T5, rα2β4 nAChR (Rattus norvegicus, UniProt P12389+P12392); test: ACh-evoked currents in Xenopus oocytes (TEVC), rα2β4; assay type: cell-based
T5 construct: expressed in transfected cells; host or cells: Xenopus laevis oocytes injected with cRNA

rα3β2 nAChR = molecular target: T6, rα3β2 nAChR (Rattus norvegicus, UniProt P04757+P12390); test: ACh-evoked currents in Xenopus oocytes (TEVC), rα3β2; assay type: cell-based
T6 construct: expressed in transfected cells; host or cells: Xenopus laevis oocytes injected with cRNA

mα1β1δε nAChR = molecular target: T7, mα1β1δε nAChR (Mus musculus, UniProt P02716+P04756+P09690+P20782); test: ACh-evoked currents in Xenopus oocytes (TEVC), mα1β1δε; assay type: cell-based
T7 construct: expressed in transfected cells; host or cells: Xenopus laevis oocytes injected with cRNA

rα6/α3β4 nAChR = molecular target: T8, rα6/α3β4 nAChR (Rattus norvegicus, UniProt P04757+P12392+P43143); test: ACh-evoked currents in Xenopus oocytes (TEVC), rα6/α3β4; assay type: cell-based
T8 construct: expressed in transfected cells; host or cells: Xenopus laevis oocytes injected with cRNA

rα3β4 nAChR = molecular target: T9, rα3β4 nAChR (Rattus norvegicus, UniProt P04757+P12392); test: ACh-evoked currents in Xenopus oocytes (TEVC), rα3β4; assay type: cell-based
T9 construct: expressed in transfected cells; host or cells: Xenopus laevis oocytes injected with cRNA

rα2β2 nAChR = molecular target: T10, rα2β2 nAChR (Rattus norvegicus, UniProt P12389+P12390); test: ACh-evoked currents in Xenopus oocytes (TEVC), rα2β2; assay type: cell-based
T10 construct: expressed in transfected cells; host or cells: Xenopus laevis oocytes injected with cRNA

rα7 nAChR = molecular target: T11, rα7 nAChR (Rattus norvegicus, UniProt Q05941); test: ACh-evoked currents in Xenopus oocytes (TEVC), rα7; assay type: cell-based
T11 construct: expressed in transfected cells; host or cells: Xenopus laevis oocytes injected with cRNA

TRPC1 = test system: TRPC1; set-up: method as in doi.org/10.1016/j.toxicon.2006.09.030; conditions: ref doi.org/10.1016/j.toxicon.2006.09.030; cited from earlier work
[1] = test system: tetrodotoxin-resistant voltage-gated sodium channel; conditions: cited from earlier work
[2] = test system: neuronal tetrodotoxin-sensitive voltage-gated sodium channel of adult rat dorsal root ganglion neurons; conditions: cited from earlier work
Nav1.8 = test system: Nav1.8; set-up: method as in earlier work; conditions: ref doi.org/10.1016/j.cub.2014.01.013; doi.org/10.1016/j.toxicon.2006.09.014; cited from earlier work
TRPA1 = test system: TRPA1; set-up: method as in earlier work; conditions: ref doi.org/10.1016/j.cub.2014.01.013; doi.org/10.1016/j.toxicon.2006.09.014; cited from earlier work
Nav1.5 = test system: Nav1.5; set-up: method as in earlier work; conditions: ref doi.org/10.1016/j.cub.2014.01.013; doi.org/10.1016/j.toxicon.2006.09.014; cited from earlier work
Nav1.7 = test system: Nav1.7; set-up: method as in earlier work; conditions: ref doi.org/10.1016/j.cub.2014.01.013; doi.org/10.1016/j.toxicon.2006.09.014; cited from earlier work
Nav1.2 = test system: Nav1.2; set-up: method as in earlier work; conditions: ref doi.org/10.1016/j.cub.2014.01.013; doi.org/10.1016/j.toxicon.2006.09.014; cited from earlier work
KVAP = test system: KVAP; set-up: method as in doi.org/10.1038/nature01473; conditions: ref doi.org/10.1038/nature01473; cited from earlier work

T1 sequence (Q9JLB5 25-447): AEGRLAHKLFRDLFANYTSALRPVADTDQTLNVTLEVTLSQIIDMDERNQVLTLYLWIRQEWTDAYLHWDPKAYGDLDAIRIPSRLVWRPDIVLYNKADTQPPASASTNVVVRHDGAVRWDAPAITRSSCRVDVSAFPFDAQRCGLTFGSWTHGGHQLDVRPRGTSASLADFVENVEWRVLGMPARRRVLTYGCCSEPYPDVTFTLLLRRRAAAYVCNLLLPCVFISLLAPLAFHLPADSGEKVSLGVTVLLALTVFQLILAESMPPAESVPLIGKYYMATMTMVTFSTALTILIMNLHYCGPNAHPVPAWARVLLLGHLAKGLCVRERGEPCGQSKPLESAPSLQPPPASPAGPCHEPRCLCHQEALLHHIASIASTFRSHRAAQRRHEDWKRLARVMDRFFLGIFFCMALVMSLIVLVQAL
T1 sequence (P43144 26-479): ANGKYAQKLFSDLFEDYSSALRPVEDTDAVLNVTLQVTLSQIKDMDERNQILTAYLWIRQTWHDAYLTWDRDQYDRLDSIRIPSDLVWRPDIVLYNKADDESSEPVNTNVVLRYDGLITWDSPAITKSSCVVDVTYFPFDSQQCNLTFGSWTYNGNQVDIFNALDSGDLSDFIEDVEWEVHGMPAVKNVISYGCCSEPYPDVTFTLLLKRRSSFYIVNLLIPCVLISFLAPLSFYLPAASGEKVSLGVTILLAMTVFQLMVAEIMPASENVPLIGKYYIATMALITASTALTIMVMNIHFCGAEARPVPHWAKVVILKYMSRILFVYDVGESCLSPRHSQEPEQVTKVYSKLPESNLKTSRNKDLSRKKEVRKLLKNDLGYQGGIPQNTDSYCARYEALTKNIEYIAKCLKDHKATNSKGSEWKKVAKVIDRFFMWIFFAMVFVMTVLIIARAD
T11 sequence (Q05941 23-502): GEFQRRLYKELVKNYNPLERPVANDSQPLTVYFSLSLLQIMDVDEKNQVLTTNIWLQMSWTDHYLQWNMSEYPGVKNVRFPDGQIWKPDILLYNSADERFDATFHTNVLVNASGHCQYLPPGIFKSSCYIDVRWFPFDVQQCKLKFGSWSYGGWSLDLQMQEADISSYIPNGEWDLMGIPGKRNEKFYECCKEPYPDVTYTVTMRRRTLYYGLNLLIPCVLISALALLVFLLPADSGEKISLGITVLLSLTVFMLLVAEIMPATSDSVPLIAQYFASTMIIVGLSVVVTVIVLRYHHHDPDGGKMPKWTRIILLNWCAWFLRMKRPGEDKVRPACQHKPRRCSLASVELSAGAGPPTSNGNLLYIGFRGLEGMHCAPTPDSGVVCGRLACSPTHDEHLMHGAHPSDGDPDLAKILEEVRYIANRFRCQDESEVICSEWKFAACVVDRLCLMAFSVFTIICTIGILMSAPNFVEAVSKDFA
T7 sequence (P20782 21-493): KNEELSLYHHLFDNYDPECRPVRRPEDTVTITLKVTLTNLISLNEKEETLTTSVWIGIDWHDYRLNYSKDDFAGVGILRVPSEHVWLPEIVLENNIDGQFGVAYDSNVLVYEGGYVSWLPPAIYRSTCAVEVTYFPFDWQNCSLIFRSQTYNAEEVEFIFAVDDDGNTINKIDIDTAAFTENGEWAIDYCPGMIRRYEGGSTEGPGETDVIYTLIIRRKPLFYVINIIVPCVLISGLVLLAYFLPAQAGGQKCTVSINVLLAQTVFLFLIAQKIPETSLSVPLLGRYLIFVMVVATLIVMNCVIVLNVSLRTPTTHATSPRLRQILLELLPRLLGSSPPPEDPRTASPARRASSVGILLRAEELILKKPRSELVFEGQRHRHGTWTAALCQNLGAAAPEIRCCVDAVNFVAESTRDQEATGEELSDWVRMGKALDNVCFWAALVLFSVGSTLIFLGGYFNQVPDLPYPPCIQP
T7 sequence (P04756 21-457): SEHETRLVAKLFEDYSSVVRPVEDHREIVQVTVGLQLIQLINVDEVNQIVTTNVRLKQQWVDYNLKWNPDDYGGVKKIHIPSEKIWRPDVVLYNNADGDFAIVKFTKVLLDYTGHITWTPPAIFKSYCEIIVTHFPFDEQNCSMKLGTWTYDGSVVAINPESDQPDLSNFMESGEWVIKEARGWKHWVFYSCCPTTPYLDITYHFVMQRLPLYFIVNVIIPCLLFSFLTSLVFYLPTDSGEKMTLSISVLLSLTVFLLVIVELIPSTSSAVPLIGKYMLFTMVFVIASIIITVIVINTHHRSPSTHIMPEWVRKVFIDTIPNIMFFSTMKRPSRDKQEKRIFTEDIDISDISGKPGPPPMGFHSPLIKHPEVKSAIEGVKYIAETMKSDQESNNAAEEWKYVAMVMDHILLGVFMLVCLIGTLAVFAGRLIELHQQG
T7 sequence (P09690 24-501): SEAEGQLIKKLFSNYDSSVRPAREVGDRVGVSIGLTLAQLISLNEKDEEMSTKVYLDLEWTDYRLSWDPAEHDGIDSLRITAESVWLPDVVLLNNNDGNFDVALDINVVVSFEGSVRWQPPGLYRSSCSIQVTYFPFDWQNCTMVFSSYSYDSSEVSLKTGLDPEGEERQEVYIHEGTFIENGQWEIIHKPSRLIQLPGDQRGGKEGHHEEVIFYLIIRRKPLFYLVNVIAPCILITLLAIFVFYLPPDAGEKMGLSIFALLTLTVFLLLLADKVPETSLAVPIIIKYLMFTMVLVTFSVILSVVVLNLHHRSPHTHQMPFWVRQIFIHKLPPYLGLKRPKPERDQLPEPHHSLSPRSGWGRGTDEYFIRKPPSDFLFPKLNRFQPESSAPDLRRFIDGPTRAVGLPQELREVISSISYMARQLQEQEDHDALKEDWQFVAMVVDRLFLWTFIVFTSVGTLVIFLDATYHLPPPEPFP
T7 sequence (P02716 25-520): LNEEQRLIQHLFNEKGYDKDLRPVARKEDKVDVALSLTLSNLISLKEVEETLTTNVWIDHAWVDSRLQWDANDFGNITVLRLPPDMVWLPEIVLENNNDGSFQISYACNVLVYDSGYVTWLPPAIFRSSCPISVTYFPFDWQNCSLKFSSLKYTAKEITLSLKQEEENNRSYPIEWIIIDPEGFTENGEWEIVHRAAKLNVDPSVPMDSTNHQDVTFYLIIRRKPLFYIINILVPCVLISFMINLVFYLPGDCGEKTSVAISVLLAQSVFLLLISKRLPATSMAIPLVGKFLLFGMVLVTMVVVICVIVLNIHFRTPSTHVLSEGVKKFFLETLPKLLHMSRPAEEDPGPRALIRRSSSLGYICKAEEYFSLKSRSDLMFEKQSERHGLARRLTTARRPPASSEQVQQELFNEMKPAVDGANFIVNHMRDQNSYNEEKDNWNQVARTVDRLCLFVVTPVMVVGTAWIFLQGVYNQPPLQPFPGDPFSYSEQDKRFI
T9 sequence (P04757 26-499): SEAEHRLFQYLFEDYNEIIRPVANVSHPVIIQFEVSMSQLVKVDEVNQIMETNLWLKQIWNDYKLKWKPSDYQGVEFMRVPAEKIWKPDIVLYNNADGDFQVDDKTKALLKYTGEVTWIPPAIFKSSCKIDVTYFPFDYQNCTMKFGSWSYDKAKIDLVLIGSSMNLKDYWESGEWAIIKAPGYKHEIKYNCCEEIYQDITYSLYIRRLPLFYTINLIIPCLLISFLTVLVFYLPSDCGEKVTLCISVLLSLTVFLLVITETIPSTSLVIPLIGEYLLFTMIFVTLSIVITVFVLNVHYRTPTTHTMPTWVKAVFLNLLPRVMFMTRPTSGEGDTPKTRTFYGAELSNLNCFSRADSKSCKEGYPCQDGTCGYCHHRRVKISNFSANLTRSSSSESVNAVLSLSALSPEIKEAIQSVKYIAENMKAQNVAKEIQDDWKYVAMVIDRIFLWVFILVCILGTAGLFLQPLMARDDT
T9 sequence (P12392 21-495): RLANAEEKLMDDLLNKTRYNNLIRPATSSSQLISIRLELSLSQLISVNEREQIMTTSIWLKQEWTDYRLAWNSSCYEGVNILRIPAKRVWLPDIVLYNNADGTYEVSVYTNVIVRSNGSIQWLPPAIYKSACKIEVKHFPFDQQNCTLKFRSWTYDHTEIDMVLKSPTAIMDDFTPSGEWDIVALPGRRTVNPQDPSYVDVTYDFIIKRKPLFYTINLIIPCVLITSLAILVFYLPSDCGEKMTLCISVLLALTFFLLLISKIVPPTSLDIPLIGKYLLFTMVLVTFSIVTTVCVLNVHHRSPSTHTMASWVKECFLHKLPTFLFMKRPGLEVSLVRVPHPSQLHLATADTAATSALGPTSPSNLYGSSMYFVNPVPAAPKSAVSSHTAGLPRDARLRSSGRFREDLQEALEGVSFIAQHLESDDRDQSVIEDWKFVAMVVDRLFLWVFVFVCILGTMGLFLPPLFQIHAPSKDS
T3 sequence (P36544 23-502): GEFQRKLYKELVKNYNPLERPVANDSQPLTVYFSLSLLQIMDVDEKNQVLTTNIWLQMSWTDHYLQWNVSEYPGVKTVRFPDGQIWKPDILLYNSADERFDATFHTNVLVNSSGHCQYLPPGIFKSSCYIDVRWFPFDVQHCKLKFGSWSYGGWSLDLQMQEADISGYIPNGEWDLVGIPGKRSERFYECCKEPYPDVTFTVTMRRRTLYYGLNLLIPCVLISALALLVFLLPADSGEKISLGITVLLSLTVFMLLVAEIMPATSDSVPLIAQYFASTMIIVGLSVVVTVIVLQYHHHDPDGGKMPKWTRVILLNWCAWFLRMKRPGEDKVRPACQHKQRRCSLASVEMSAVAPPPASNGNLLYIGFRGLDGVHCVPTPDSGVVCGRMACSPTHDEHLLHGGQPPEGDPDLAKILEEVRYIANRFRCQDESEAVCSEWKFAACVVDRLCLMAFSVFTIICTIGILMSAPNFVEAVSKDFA

For “GCKKLNSYCTRQHRECCHGLVCRRPDYGIGRGILWKCTRARK (disulfide 2-17, 9-22, 16-37) [Ms11a-3]”, the IC50 (rα9α10 nAChR) was 0.202 µM, the “functional antagonism” value (rα9α10 nAChR; compared to the muscle and α7 receptors) was “highest antagonism; also recorded: effectively blocking the neuronal α9α10 and to a lesser extent muscle nAChR subtypes” and the “Hill Slope” value (rα9α10 nAChR; mean (95% confidence interval)) was 0.71 (0.52–0.90). For the same substance, the IC50 (rα4β2 nAChR) was over 10 µM, the IC50 (hα7 nAChR) was 8.87 µM and the “Hill Slope” value (hα7 nAChR; mean (95% confidence interval)) was 0.95 (0.30–1.61). It also gave an IC50 (rα4β4 nAChR) of over 10 µM, an IC50 (rα2β4 nAChR) of over 10 µM and an IC50 (rα3β2 nAChR) of over 10 µM. The IC50 (mα1β1δε nAChR) was 1.21 µM, the “Hill Slope” value (mα1β1δε nAChR; mean (95% confidence interval)) was 1.35 (0.71–1.99) and the IC50 (rα6/α3β4 nAChR) was over 10 µM. For the same substance, the IC50 (rα3β4 nAChR) was 5.17 µM, the “Hill Slope” value (rα3β4 nAChR; mean (95% confidence interval)) was 0.84 (0.67–1.00) and the IC50 (rα2β2 nAChR) was over 10 µM. The IC50 (rα7 nAChR) was 4.79 µM, the “Hill Slope” value (rα7 nAChR; mean (95% confidence interval)) was 0.99 (0.59–1.40) and the “functional potency” value (rα7 nAChR; towards α7 and heteromeric nAChRs) was “lowest potency”.
In the case of GsMTx-4, the “Target (that was in the corresponding Ref.)” value (shortened to “Target”) (TRPC1) is listed as “TRPC1”.
For “HWTX-IV: Haplopelma schmidti toxin, PDB 1MB6”, the “No (or weak) effect” value [1] is listed as “No (or weak) effect” and the IC50 [2] is listed as 0.03 µM.
For ProTx-I, the “Target” value (Nav1.8) is listed as “Nav1.8”, the IC50 (TRPA1) is listed as 0.389 ± 0.077 µM and the “Target” value (Nav1.5) is listed as “Nav1.5”. For the same substance, the “Target” value (Nav1.7) was “Nav1.7” and the “Target” value (Nav1.2) was “Nav1.2”.
For “VSTx1: Grammostola rosea toxin, PDB 2N1N (ECGKFMWKCKNSNDCCKDLVCSSRWKWCVLASPF; UniProt P60980 30-63, looked up)”, the “Target” value (KVAP) is listed as “KVAP”.
